1 compound from paper PMC10451034, “Highly Efficient Photosensitizers with Molecular Vibrational Torsion for Cancer Photodynamic Therapy” (ACS Central Science, 2023) can be followed below.

The nature of data set [1]: In vivo biosafety (body weight, H&E staining of major organs). Details: species or system BALB/c mice. As to the method:
The efficacy and safety of each therapeutic group were also evaluated by performing a hematoxylin and eosin (H&E) staining assay of major organs and tumor tissue (Figures 10g and S23). […]
of major organs, the mice L) was intravenously injected with QTCy7-Ac (200 μM, 100 μL) 2 hours in advance were killed and the main organs and tumors were removed for […]
Tumor suppression experiments of 4T1-subcutaneous tumor model
To confirm the in vivo PDT efficacy of QTCy7-Ac, all the BALB/c mice were divided into 6 groups: 1) saline injection; 2) saline injection with 660 nm irradiation (100 mW/cm2, 15 min); 3) QTCy7-Ac (200 μM, 100 μL) intratumoral injection; 4) QTCy7-Ac (200 μM, 100 μL) intratumoral injection with 660 nm irradiation (100 mW/cm2, 15 min); 5) QTCy7-Ac (200 μM, 100 μL) intravenous injection; 6) QTCy7-Ac (200 μM, 100 μL) intravenous injection with 660 nm irradiation (100 mW/cm2, 15 min); When the volume of subcutaneous tumors reached about 100 mm 3, mice were injected with PBS or QTCy7-Ac, respectively. […] In the following half month, the tumor volume of all the mice was measured every two days by a vernier caliper. The volume of tumors was calculated by the following formula: […]
The in vivo biocompatibility was evaluated by using measurement mice body weight and H&E slice histological analysis. […]
Data were expressed as mean ± standard deviation. […]

The nature of data set [2]: Singlet oxygen yield in PBS with singlet oxygen sensor green (SOSG). The data set is classed as physicochemical. The note with it: 660 nm irradiation. As to the method:
In order to further investigate the PDT ability of QTCy7-R on cancer cells, the UV–vis absorption and emission spectra and ^1O2 production capacity of QTCy7-R were tested in phosphate-buffered solution (PBS) to better mimic the cellular environment. […] Meanwhile, the fluorescence quenching of QTCy7-Ph and QTCy7-CHO also confirmed their aggregation in aqueous solution compared to the intense fluorescence emission of QTCy7-Ac. Furthermore, singlet oxygen sensor green (SOSG) was selected to investigate the ^1O2 quantum yield in PBS.
QTCy7-Ph, (e) QTCy7-Ac, (f) QTCy7-CHO, (g) TCy7 and (h) MB under 660 nm irradiation (4 mW/cm2) in PBS. (i) The relative singlet oxygen yield of different compounds in PBS.
Figure S19. (a) The cellular uptake of QTCy7-R in HepG2 cells (QTCy7-Me/QTCy7-Ph: λex = 640 […]
μm). (b) The fluorescence intensity of QTCy7-R in cell at different time. (c) The LDH release rate of cells under different treatment conditions.
Figure S20. The enlarged images of (a) QTCy7-Ac and (b) QTCy7-CHO caused cell membrane destruction at 0 min and 4 min. Yellow arrows indicate the formation of distinct bubble-like structures on cell membrane. (λex = 640 nm, λem = 650-750 nm, scale bars: 20 μm). […]

In the case of `CCOC(=O)C1=C/C(=C\C=C2/Sc3ccccc3N2CC)C(=O)C(/C=C/c2sc3ccccc3[n+]2CC)=C1` [QTCy7-Ac], the “H&E staining of major organs (heart, liver, spleen, lung, kidney)” value in data set [1] (after 16 days of treatment) was “not observed”. The body weight changes result in data set [1] (during the treatment) is reported as “no abnormal body weight changes”. The “1O2 quantum yield relative to MB” value in data set [2] was 5.8 times.
